Source: ChEMBL document CHEMBL5338785, “Development of Aromatic-Linked Diamino Acid Antimicrobial Peptide Mimics with Low Hemolytic Toxicity and Excellent Activity against Methicillin-Resistant Staphylococcus aureus (MRSA)” (J Med Chem, 2023)
Converted amounts (≈) assume the structure as drawn. The source made the active and inactive calls. No cut-off for these calls is given here.

Assays:
[1] = Selectivity index, ratio of HC50 for hemolytic activity in mammalian RBC to MIC for antibacterial activity against methicillin-resistant Staphylococcus aureus assessed as bacterial growth inhibition; type: toxicity; conditions: mammalian red blood cells
Staphylococcus aureus [2] = assay: Antibacterial activity against methicillin-resistant Staphylococcus aureus assessed as bacterial growth inhibition; type: functional
[3] = Hemolytic activity in mammalian RBC assessed as hemolysis; type: toxicity, cell-based, Erythrocyte; conditions: mammalia, mammalian red blood cells
Escherichia coli = assay: Antibacterial activity against Escherichia coli assessed as bacterial growth inhibition incubated for 18 hrs by CLSI protocol based Mueller-Hinton broth assay; type: functional; conditions: Escherichia coli, 18 h, read-out: MIC
[4] = Cytotoxicity against HUVEC cells assessed as reduction in cell viability incubated for 72 hrs by CCK8 assay; type: toxicity, cell-based; conditions: human
[5] = test system: Stenotrophomonas maltophilia; assay: Antibacterial activity against Stenotrophomonas maltophilia assessed as bacterial growth inhibition incubated for 18 hrs by CLSI protocol based Mueller-Hinton broth assay; type: functional; conditions: Stenotrophomonas maltophilia, read-out: MIC
Enterococcus faecalis = assay: Antibacterial activity against Enterococcus faecalis assessed as bacterial growth inhibition incubated for 18 hrs by CLSI protocol based Mueller-Hinton broth assay; type: functional; conditions: Enterococcus faecalis, 18 h, read-out: MIC
[6] = Selectivity index, ratio of HC50 for hemolytic activity in human erythrocytes to MIC for antibacterial activity against methicillin-resistant Staphylococcus aureus assessed as bacterial growth inhibition; type: toxicity, cell-based
[7] = Hemolytic activity in sheep RBC assessed as hemolysis incubated for 1 hr by microplate reader method; type: toxicity, cell-based, Ovis aries, Erythrocyte; conditions: sheep red blood cells
[8] = Hemolytic activity in human erythrocytes assessed as hemolysis; type: toxicity, cell-based, Erythrocyte
Staphylococcus aureus [9] = assay: Antibacterial activity against methicillin-resistant Staphylococcus aureus assessed as bacterial growth inhibition incubated for 18 hrs by CLSI protocol based Mueller-Hinton broth assay; type: functional; conditions: Staphylococcus aureus, read-out: MIC
[10] = Selectivity index, ratio of HC50 for hemolytic activity in sheep RBC to MIC for antibacterial activity against methicillin-resistant Staphylococcus aureus assessed as bacterial growth inhibition; type: toxicity; conditions: sheep red blood cells
Staphylococcus aureus [11] = assay: Bactericidal activity against methicillin-resistant Staphylococcus aureus assessed as reduction in turbidity at 3 ug/ml measured after 6 hrs; type: functional, organism-based; conditions: dose 3.0 µg/ml
Staphylococcus aureus [12] = assay: In vivo antibacterial activity against methicillin-resistant Staphylococcus aureus infected in SPF Kunming mouse assessed as reduction in neutrophils in skin tissue at 10 mg/kg ,ip administered every 12 hrs for 3 consecutive days; type: functional, organism-based; conditions: time 3.0 day
Staphylococcus aureus [13] = assay: Bactericidal activity against methicillin-resistant Staphylococcus aureus at 3 ug/ml measured after 12 hrs by time-killing kinetics assay; type: functional, organism-based; conditions: dose 3.0 µg/ml
Staphylococcus aureus [14] = assay: In vivo antibacterial activity against methicillin-resistant Staphylococcus aureus infected in SPF Kunming mouse assessed as reduction in amount of bacteria measure per abscess at 5 mg/kg ,ip administered every 12 hrs for 3 consecutive days; type: functional; conditions: time 3 day
Staphylococcus aureus [15] = assay: In vivo antibacterial activity against methicillin-resistant Staphylococcus aureus infected in SPF Kunming mouse assessed as reduction in inflammation in skin tissue at 10 mg/kg ,ip administered every 12 hrs for 3 consecutive days; type: functional, organism-based; conditions: time 3.0 day
Staphylococcus aureus [16] = assay: Antibacterial activity against methicillin-resistant Staphylococcus aureus assessed as resistance development by measuring increase in MIC measured after 14 days by resistance development assay (reference value: 1 ug/ml); type: functional; conditions: 336 h, time 14 day

Work on `CCCCCCCC[N+](C)(C)CCCCOc1ccc(OCCCC[N+](C)(C)CCCCCCCC)cc1.[Br-].[Br-]` yielded a selectivity ratio [1] of 4840, an MIC (Staphylococcus aureus [2]) of 0.25 µg/mL and an HC50 [3] of 1210 µg/mL.

`CCCCCCN(Cc1ccc(-c2ccc(CN(CCCCCC)C(=O)[C@@H](N)CCCCN)cc2)cc1)C(=O)[C@@H](N)CCCCN.O=C(O)C(F)(F)F.O=C(O)C(F)(F)F.O=C(O)C(F)(F)F.O=C(O)C(F)(F)F` showed an MIC (Escherichia coli) of 4 µg/mL, an MIC (Staphylococcus aureus [2]) of 3.1 µg/mL and a CC50 at 72 h [4] of 14.2 µg/mL. The MIC [5] was 4 µg/mL, the MIC (Enterococcus faecalis) was 2 µg/mL and the selectivity ratio [6] was 74.2. The HC50 at 1 h [7] was 276 µg/mL, the HC50 [8] was 230 µg/mL and the MIC (Staphylococcus aureus [9]) was 2 µg/mL. It also gave a selectivity ratio [10] of 138.

For `CN[C@H](CC(C)C)C(=O)N[C@H]1C(=O)N[C@@H](CC(N)=O)C(=O)N[C@H]2C(=O)N[C@H]3C(=O)N[C@H](C(=O)N[C@H](C(=O)O)c4cc(O)cc(O)c4-c4cc3ccc4O)[C@H](O)c3ccc(c(Cl)c3)Oc3cc2cc(c3O[C@@H]2O[C@H](CO)[C@@H](O)[C@H](O)[C@H]2O[C@H]2C[C@](C)(N)[C@H](O)[C@H](C)O2)Oc2ccc(cc2Cl)[C@H]1O` [VANCOMYCIN], the Activity (Staphylococcus aureus [11]) was “Active”, the Activity (Staphylococcus aureus [12]) was “Active” and the Activity (Staphylococcus aureus [13]) was “Active”. For the same compound, the Activity (Staphylococcus aureus [14]) was 14454.4 CFU, the Activity (Staphylococcus aureus [15]) was “Active” and the HC50 at 1 h [7] was > 1000 µg/mL.

For `CCn1cc(C(=O)O)c(=O)c2cc(F)c(N3CCNCC3)cc21` [NORFLOXACIN], the MIC (Staphylococcus aureus [16]) was 128 µg/mL (≈ 401 µM).
